In US5358712A, “Radiopharmaceutical agents for the detection of Alzheimer's disease” (Regents of the University of Minnesota, priority 1993, dated 1994):
Entries after “also recorded” stand apart in the source; their conditions may differ.

Tests used:
vesamicol receptor [1] = target: T1, vesamicol receptor (Tetronarce californica, UniProt P81721); test: Binding affinities of aminoalcohols at the vesamicol receptor (purified cholinergic synaptic vesicles); parameters: species or system Torpedo californica
T1 construct: no ATP or acetylcholine
T1 sequence (P81721 1-515): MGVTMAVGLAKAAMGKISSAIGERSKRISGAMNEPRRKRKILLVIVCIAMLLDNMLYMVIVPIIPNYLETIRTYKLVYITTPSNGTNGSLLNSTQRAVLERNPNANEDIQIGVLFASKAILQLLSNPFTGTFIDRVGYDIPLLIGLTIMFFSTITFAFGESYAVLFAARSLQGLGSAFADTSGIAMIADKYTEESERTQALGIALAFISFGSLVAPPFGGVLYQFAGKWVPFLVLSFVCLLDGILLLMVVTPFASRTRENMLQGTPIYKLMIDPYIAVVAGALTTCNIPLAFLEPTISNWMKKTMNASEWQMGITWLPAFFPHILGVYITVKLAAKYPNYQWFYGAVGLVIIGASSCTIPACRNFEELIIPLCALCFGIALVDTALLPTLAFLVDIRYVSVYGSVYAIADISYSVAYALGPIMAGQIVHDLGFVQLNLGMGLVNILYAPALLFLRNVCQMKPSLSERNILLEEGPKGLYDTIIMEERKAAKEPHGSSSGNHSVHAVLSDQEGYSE
Experimental: The compounds were evaluated in a purified preparation of cholinergic synaptic vesicles isolated from the electric organ of Torpedo californica. A full description of this assay was described earlier. However, the present study was carried out in the absence of ATP and acetylcholine. […] Nonlinear regression analysis was carried out with MINSQ (MicroMath Scientific Software, Salt Lake City, Utah.). Protein content was determined by the method of Bradford, using a bovine serum albumin standard.
^a The compounds were tested as the corresponding hydrochlorides,
using highly purified synaptic vesicles obtained from the electric organ
of Torpedo Californica, following a procedure described earlier (8).

[2] = system: vesicular acetylcholine storage; details: cited from earlier work; for vesamicol-like inhibitory activity (in words): Kaufman et al 1988
vesamicol receptor [3] = details: cited from earlier work
vesamicol receptor [4] = details: rodent brain; cited from earlier work
rat brain = test: Ex vivo autoradiographic studies, regional distribution in the rodent brain; parameters: species or system rat (male Wistar); details: 3 hours
Experimental: Four male Wistar rats weighing 300-330 g. were anesthetized with diethyl ether. While under anesthesia two animals each received an intravenous dose of 300 μCi of (-)-4-[^125 I]HIPP in […] of 50% aqueous ethanol. The second pair of animals received an iv dose of (+)-4-[^125I]HIPP (170 μCi) in the same solvent. The animals were sacrificed by decapitation three hours following radiotracer administration. The brains were harvested, embedded in Tissue Tek OCT embedding medium and frozen to -38° C. Twenty-micron thick brain sections were obtained at -15° C. using a Reicheft HistoSTAT cryostat microtome. The sections were dried and opposed to Kodak NMC film for autoradiography accompanied by external standards (^125 I-labelled microscales from Amersham). Images were subsequently digitized based on the linear scale obtained from these standards.

[5] = Tissue distribution (biodistribution) of radioiodinated compound in the rat; details: for Brain: Blood Ratio / Heart: Blood Ratio: iv
vesamicol receptor [6] = test: Blocking experiments: inhibition of radiotracer accumulation in the rat by coadministered compound; format: in vivo, rat (male Wistar); details: rat, 60 min; for Brain: Blood Ratio / Heart: Blood Ratio / radioactivity in blood / radioactivity in brain / radioactivity in heart / radioactivity in kidney / radioactivity in liver / radioactivity in lung / radioactivity in muscle / radioactivity in spleen: iv
In short: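 Male Wistar rats (n=3/group) got iv radiotracer, alone or coadministered with blocker (e.g. (+)/(−)-HBrPP·HCl 1.3 μmol/kg, vesamicol·HCl 1.1 μmol/kg, or 0.31–0.53 mg/kg in other series). Blood and tissues taken 60 min post-injection to assess radiotracer accumulation.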

monkey brain = test: Brain imaging study (SPECT); format: in vivo; details: cynomolgus monkey
Experimental: These studies were conducted with a Picker 3-head PRISM camera equipped with a high-resolution fan beam collimator. A 5-Kg male cynomolgus monkey, anesthetized with halothane, received an intravenous dose of 12 mCi of (-)-4-[^123 I]HIPP ((-)-[^123 I]5) in 1 ml of 50% ethanol-isotonicsaline. Data acquisition which commenced simultaneously, in the "step and shoot" mode, was divided into one 5minute segment, six 10-minute segments and a final 20-minute segment. At 18 hours post-injection, data was acquired under similar conditions for both the head and the heart, over a 20 minute period. For cardiac imaging, the camera was equipped with a medium-energy-parallel-hole collimator. The data was subsequently processed to obtain both a time-activity curve and images in the transaxial and sagittal planes. To obtain an estimate of the fractional accumulation of (-)-4-^123 I]HIPP in the monkey brain, a phantom filled consecutively with varying concentrations of aqueous Na^125 I was counted with the gamma camera to generate a standard curve.

[7] = coadministered blocker, listed as (+)-[^125 I]5
[8] = + (dl)-vesamicol HCl 0.3 (Table 3) or 0.31 mg/kg

In the case of `OC(CN1CCC(c2ccccc2)CC1)c1ccc(Br)cc1` (racemic) [Compound 15i, (dl)-1-(4-Bromophenyl)-2-(4-phenylpiperidinyl)ethanol], the “binding to the vesamicol receptor (in words)” value (vesamicol receptor [1]) is reported as “equipotent with (dl)-vesamicol”.
For `OC(Cc1cccc(I)c1)CN1CCC(c2ccccc2)CC1` (single isomer, unassigned; (+)) [Compound 15j, (+)-2-Hydroxyl-3-(3-iodophenyl)-1-[1-(4-phenylpiperidinyl)]propane], the Kd (vesamicol receptor [1]; synaptic vesicles from electric organ of Torpedo californica, tested as hydrochloride) was 73 ± 11 nM.
For `CC(O)CN1CCC(c2ccccc2)CC1` (centres unmarked) [Compound 14], the “vesamicol-like inhibitory activity (in words)” value ([2]; Rogers et al 1989) is listed as “weak inhibitors”.
In the case of `Nc1cccc2c1CC(N1CCC(c3ccccc3)CC1)C(O)C2` (centres unmarked) [Compound 2], the “vesamicol-like inhibitory activity (in words)” value ([2]; Rogers et al 1989) is listed as “potent” and the “ligand potency at the vesamicol receptor (in words)” value (vesamicol receptor [3]; literature) is listed as “potent ligands”.
In the case of `O[C@@H]1CCCC[C@H]1N1CCC(c2ccccc2)CC1` (relative stereo) [[^3 H]vesamicol], the “cortical [^3 H]vesamicol binding after lesioning a known cholinergic pathway” value (vesamicol receptor [4]) is listed as “significant decrease” and the “distribution relative to other markers of cholinergic innervation” value (vesamicol receptor [4]) is listed as “correlate well”.
In the case of `CC(O)CN1CCC(c2ccccc2)CC1` (centres unmarked) [Compound 14b], the “increase in activity relative to ethanol analog 4” value ([2]; addition of an α-methyl group) is given as “thirty-fold increase in activity”.
In the case of `OCCN1CCC(c2ccccc2)CC1` [Compound 4], the “vesamicol-like inhibitory activity (in words)” value ([2]; Rogers et al 1989) is given as “weak inhibitors; also recorded: very weak inhibitor” and the “potency relative to vesamicol” value ([2]; Rogers et al 1989) is given as “two hundred and fifty times less potent”.
For `OC1Cc2ccccc2CC1N1CCC(c2ccccc2)CC1` (centres unmarked) [Compound 1], the “vesamicol-like inhibitory activity (in words)” value ([2]; Rogers et al 1989) is listed as “potent” and the eudesmic ratio (vesamicol receptor [3]) is listed as “not unity”.
With `OC(Cc1ccc(Br)cc1)CN1CCC(c2ccccc2)CC1` (single isomer, unassigned; (-)) [(-)-15a, 3-(4-Bromophenyl)-2-hydroxy-1-[1-(4-phenylpiperidinyl)]propane] the “binding to the vesamicol receptor (in words)” value (vesamicol receptor [1]) was “essentially equipotent with vesamicol”.
With `OC(Cc1ccc([125I])cc1)CN1CCC(c2ccccc2)CC1` (single isomer, unassigned; (+)) [(+)-4-[^125 l]HIPP] [2-Hydroxy-3-(4-iodophenyl)-1-(4-phenylpiperidyl)propane] the “radioactivity in cerebellar molecular layer relative to granular layer” value (rat brain) was “slightly higher concentration”, the “radioactivity in frontal cortex and caudate-putamen” value (rat brain) was “Moderate levels” and the “radioactivity in pineal gland and nuclei of fifth and seventh cranial nerves” value (rat brain) was “highest levels”. The “radioactivity in the white matter” value (rat brain) was “relatively low”, the “tissue distribution profile compared with (-)-[^125 I]5” value ([5]; rat) was “similar” and the “injected dose found in the brain” value ([5]; rat, 5 minutes post injection, listed as (+)-[^125 I]5) was 2.27 % of the injected dose. For the same compound, the “injected dose found in the heart” value ([5]; rat, 5 minutes post-injection, listed as (+)-[^125 I]5) was 1.23 % of the injected dose, the “decrease of radioactivity in the heart” value ([5]; rat, between 5 and 30 minutes) was 32% and the “concentration of radioactivity in the brain over time” value ([5]; rat, duration of the study (3 hours), listed as (+)-[^125 I]5) was “remained essentially constant”. For the same compound, the “Brain: Blood Ratio” value ([5]; rat, 5 min) was 15.2, the “Heart: Blood Ratio” value ([5]; rat, 5 min) was 22.7 and the “Brain: Blood Ratio” value ([5]; rat, 30 min) was 32.4. The “Heart: Blood Ratio” value ([5]; rat, 30 min) was 32.7, the “Brain: Blood Ratio” value ([5]; rat, 60 min) was 44.3 and the “Heart: Blood Ratio” value ([5]; rat, 60 min) was 40.2. The “Brain: Blood Ratio” value ([5]; rat, 180 min) was 44.8, the “Heart: Blood Ratio” value ([5]; rat, 180 min) was 28.2 and the “level of radioactivity in the blood” value ([5]; rat, throughout the study) was “low”. The “brain retention (in words)” value ([5]; rodent (and monkey)) was “comparable retention”, the “reduction of accumulation of radioactivity in the brain” value (vesamicol receptor [6]; [7]) was 53%-58% and the “reduction of accumulation of radioactivity in the heart” value (vesamicol receptor [6]; [7]) was 74% -76%. The “Brain: Blood Ratio” value (vesamicol receptor [6]; + (+)-7 HCl 0.53 mg/kg) was 3.9, the “Heart: Blood Ratio” value (vesamicol receptor [6]; + (+)-7 HCl 0.53 mg/kg) was 1.8 and the radioactivity in blood (vesamicol receptor [6]; + (+)-7 HCl 0.53 mg/kg) was 0.06 % dose/g of tissue. The radioactivity in brain (vesamicol receptor [6]; + (+)-7 HCl 0.53 mg/kg) was 0.32 % dose/g of tissue, the radioactivity in heart (vesamicol receptor [6]; + (+)-7 HCl 0.53 mg/kg) was 0.15 % dose/g of tissue and the radioactivity in kidney (vesamicol receptor [6]; + (+)-7 HCl 0.53 mg/kg) was 0.47 % dose/g of tissue. For the same compound, the radioactivity in liver (vesamicol receptor [6]; + (+)-7 HCl 0.53 mg/kg) was 1.13 % dose/g of tissue, the radioactivity in lung (vesamicol receptor [6]; + (+)-7 HCl 0.53 mg/kg) was 1.29 % dose/g of tissue and the radioactivity in muscle (vesamicol receptor [6]; + (+)-7 HCl 0.53 mg/kg) was 0.08 % dose/g of tissue. The radioactivity in spleen (vesamicol receptor [6]; + (+)-7 HCl 0.53 mg/kg) was 0.71 % dose/g of tissue, the radioactivity in spleen (vesamicol receptor [6]; + (-)-7 HCl 0.53 mg/kg) was 0.57 % dose/g of tissue and the “Brain: Blood Ratio” value (vesamicol receptor [6]; + (-)-7 HCl 0.53 mg/kg) was 4.5. The “Heart: Blood Ratio” value (vesamicol receptor [6]; + (-)-7 HCl 0.53 mg/kg) was 2.0, the radioactivity in blood (vesamicol receptor [6]; + (-)-7 HCl 0.53 mg/kg) was 0.05 % dose/g of tissue and the radioactivity in brain (vesamicol receptor [6]; + (-)-7 HCl 0.53 mg/kg) was 0.32 % dose/g of tissue. For the same compound, the radioactivity in heart (vesamicol receptor [6]; + (-)-7 HCl 0.53 mg/kg) was 0.16 % dose/g of tissue, the radioactivity in kidney (vesamicol receptor [6]; + (-)-7 HCl 0.53 mg/kg) was 0.54 % dose/g of tissue and the radioactivity in liver (vesamicol receptor [6]; + (-)-7 HCl 0.53 mg/kg) was 0.90 % dose/g of tissue. The radioactivity in lung (vesamicol receptor [6]; + (-)-7 HCl 0.53 mg/kg) was 1.51 % dose/g of tissue, the radioactivity in muscle (vesamicol receptor [6]; + (-)-7 HCl 0.53 mg/kg) was 0.09 % dose/g of tissue and the “Brain: Blood Ratio” value (vesamicol receptor [6]; [8]) was 9.7. The “Heart: Blood Ratio” value (vesamicol receptor [6]; [8]) was 3.8, the radioactivity in blood (vesamicol receptor [6]; [8]) was 0.04 % dose/g of tissue and the radioactivity in brain (vesamicol receptor [6]; [8]) was 0.36 % dose/g of tissue. For the same compound, the radioactivity in heart (vesamicol receptor [6]; [8]) was 0.15 % dose/g of tissue, the radioactivity in kidney (vesamicol receptor [6]; [8]) was 0.46 % dose/g of tissue and the radioactivity in liver (vesamicol receptor [6]; [8]) was 2.23 % dose/g of tissue. The radioactivity in lung (vesamicol receptor [6]; [8]) was 1.11 % dose/g of tissue, the radioactivity in muscle (vesamicol receptor [6]; [8]) was 0.08 % dose/g of tissue and the radioactivity in spleen (vesamicol receptor [6]; [8]) was 0.68 % dose/g of tissue. The “Brain: Blood Ratio” value (vesamicol receptor [6]; radiotracer only (control)) was 28.7, the “Heart: Blood Ratio” value (vesamicol receptor [6]; radiotracer only (control)) was 39.8 and the radioactivity in blood (vesamicol receptor [6]; radiotracer only (control)) was 0.02 % dose/g of tissue. The radioactivity in brain (vesamicol receptor [6]; radiotracer only (control)) was 0.76 % dose/g of tissue, the radioactivity in heart (vesamicol receptor [6]; radiotracer only (control)) was 0.60 % dose/g of tissue and the radioactivity in kidney (vesamicol receptor [6]; radiotracer only (control)) was 1.63 % dose/g of tissue. The radioactivity in liver (vesamicol receptor [6]; radiotracer only (control)) was 1.38 % dose/g of tissue, the radioactivity in lung (vesamicol receptor [6]; radiotracer only (control)) was 3.46 % dose/g of tissue and the radioactivity in muscle (vesamicol receptor [6]; radiotracer only (control)) was 0.13 % dose/g of tissue. For the same compound, the radioactivity in spleen (vesamicol receptor [6]; radiotracer only (control)) was 1.10 % dose/g of tissue.
With `OC(Cc1ccc([123I])cc1)CN1CCC(c2ccccc2)CC1` (single isomer, unassigned; (-)) [(-)-4-[^123 I]HIPP, 2-Hydroxy-3-(4-iodophenyl)-1-(4-phenylpiperidyl)propane] the “brain activity relative to surrounding tissues” value (monkey brain; 11/2 and 18 hours post-injection) was “high levels of activity”, the “t-1/2 in the monkey brain” value (monkey brain; iv) was 9 h and the “accumulation within the brain” value (monkey brain; iv, estimated) was ~3 % of the injected dose.
